Source: US11360104B2, “Microbial-based biosensors” (TRUSTEES OF BOSTON UNIVERSITY, priority 2017, dated 2022)
Like-named read-outs stand apart in the source and are kept apart here.

Target: Pimelobacter simplex PinR (AIY20223.2; SEQ ID NO: 1), his-tagged (AIY-his6)
Assay: QD-FRET steroid sensor (QD-PinR + DNA-Cy5), steroid-induced TF-DNA unbinding
Format: biochemical
Method: Fluorescent spectra were analyzed using MATLAB (Mathworks) and were fitted with a sum of 2 Gaussians (D=QD: FWHM=27 nm, λmax=607 nm; A=DNA-Cy5: FWHM=40 nm, λmax=669 nm). The area of each Gaussian was extracted and FD and FA are obtained respectively for the fluorescence of QD (donor) and Cy5 (acceptor).
Raw dose-response curves were obtained by plotting FA/FD as a function of the steroid concentration. Sensor output is the normalization of the fluorescent spectra of the donor and acceptor according to the following equation: […]
Non-normalized dose-response were fitted with Origin Pro 8 software with the non-linear equation: […]
The cross-reactivity of progesterone regarding the different steroids was calculated with the following equation: […]
CdSe/CdS/ZnS QDs were coated with a zwitterionic polymer bearing histamine anchoring functions (P1, SI). Once the hydrophobic QDs were transferred into H2O using a biphasic ligand exchange, his-tagged TFs were self-assembled on the QD surface to produce the QD-TF. Addition of the double stranded, Cy5-labeled TF-binding sequence completed probe assembly as the oligo binds to the TF in the absence of progesterone (PRG). The molar ratios of the QD, TF, and DNA in the sensor were controlled through the stoichiometric ratios of the mixed parts.
Two fluorescent spectra were recorded, one from the QDs and one from the Cy5 due to the FRET.
First, the DNA1 (most binding sequence) has been used to build the first biosensor, named sensor 1. For this sensor, a ratio of QD/TF/DNA of 1/4/18 was chosen. […] In order to homogenize the fluorescent signals in between batches and different sensor variations, FA/FD was normalized to give the signal output. Signal output is then plotted against PRG concentration to give a dose-response curve (FIG. 9C) This curve was fitted with the non-linear equation XX to obtain the half-maximal inhibitory concentration (IC50) (Table 13).
Description for a typical experiment, using a molar ratio of QD/TF/DNA=1/4/18. QDs in (275 uL, 0.15 uM in HEPES 1×, pH 7.6 with 1% BSA) were mixed with AIY-his6 (275 uL, 0.6 uM in HEPES 1× pH 7.6) at room temperature for 45 min. Then, the double-stranded DNA labelled with a Cy5 fluorescent probe at the 3′ and 5′ ends (275 uL, 2.7 uM in HEPES 1× pH 7.6) was added to the mixture. After 30 min, 220 uL of HEPES 1× pH 7.5 and 330 uL of 5× binding buffer (25 mM MgCl2, 25% glycerol, and 250 mg/L Invitrogen™ UltraPure™ Salmon Sperm DNA in Tris-HCl 0.1M) were added and the mixture is left 15 more min at RT.
50 uL of the sensor (QD/TF/DNA) was then splitted in 3×9 centrifuge tubes to which 10 uL of progesterone at the desired concentration is added. As such, the final concentration of QD/TF/DNA for the measurements is 25 nM/100 nM/450 nM. A 384 well plate was filled with 60 uL of each solution. The fluorescence intensity was monitored on a spectrofluorimeter from 535 nm to 800 nm exciting at 400 nm, equipped with a 450 nm long-pass filter in emission.

Work on `CC(=O)[C@H]1CC[C@H]2[C@@H]3CCC4=CC(=O)CC[C@]4(C)[C@H]3CC[C@]12C` [PRG, Progesterone] yielded an IC50 (DNA1, QD/TF/DNA 1/4/18, read-out: X0) of 460 ± 20 nM, an IC50 (DNA2, QD/TF/DNA 1/4/18, read-out: X0) of 370 ± 10 nM and an IC50 (DNA 3, QD/TF/DNA 1/1/2, read-out: X0) of 210 nM. The IC50 (DNA 3, QD/TF/DNA 1/1/18, read-out: X0) was 350 nM, the IC50 (DNA 3, QD/TF/DNA 1/2/2, read-out: X0) was 270 nM and the IC50 (DNA 3, QD/TF/DNA 1/2/18, read-out: X0) was 410 nM. The IC50 (DNA 3, QD/TF/DNA 1/4/2, read-out: X0) was 200 nM, the IC50 (DNA 3, QD/TF/DNA 1/4/18 (Table 11), read-out: X0) was 290 nM and the IC50 (DNA3, QD/TF/DNA 1/4/18, read-out: X0) was 290 ± 20 nM. The IC50 (DNA 3, QD/TF/DNA 1/10/18, read-out: X0) was 390 nM, the IC50 (DNA 3, QD/TF/DNA 1/16/18, read-out: X0) was 440 nM and the IC50 (DNA 4, QD/TF/DNA 1/1/4, read-out: X0) was 49 ± 12 nM. For the same compound, the IC50 (DNA 4, QD/TF/DNA 1/1/18, read-out: X0) was 74 ± 18 nM, the IC50 (DNA 4, QD/TF/DNA 1/4/9, read-out: X0) was 140 ± 14 nM and the IC50 (DNA 4, QD/TF/DNA 1/4/18 (Table 12), read-out: X0) was 150 ± 12 nM. It also gave an IC50 (DNA4, QD/TF/DNA 1/4/18, read-out: X0) of 150 ± 10 nM, an IC50 (DNA 4, QD/TF/DNA 1/16/8, read-out: X0) of 380 ± 16 nM and an IC50 (sensor 2 (DNA 2, QD/TF/DNA=1/4/18), read-out: IC50) of 133 ± 9 nM. For the same compound, the IC50 (sensor 3 (DNA 2, QD/TF/DNA=1/1/18), read-out: IC50) was 57 ± 3 nM.
